Earlier results as cited in US20160088844A1 (priority 2013, published 2016).

System: roots of plants; seeds of a variety of species
Details: in vivo

In the case of `Cn1c(=O)c2c(ncn2C)n(C)c1=O` [caffeine], the “mitosis in the roots of plants” value is listed as “inhibit mitosis” and the “seed germination in a variety of species” value is listed as “inhibit seed germination”.
